# Experimental data reported in the METLIN SMRT retention time set (Domingo-Almenara et al. 2019).
# Experiment: gradient 5% acetonitrile 3 min, to 50% in 2 min, to 85% in 15 min, held 3 min, 100 µL/min
# Conditions: column: Zorbax Extend-C18 2.1 x 50 mm; eluents: water / acetonitrile, 0.1% formic acid
# In short: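 Data were gathered over 3 months by HPLC coupled to a quadrupole time-of-flight mass spectrometer, operated in positive and negative ionization mode. Mixtures of ~100 pure standards ran on a Zorbax Extend-C18 column (2.1 × 50 mm, 1.8 μm) at 100 μL/min, with water and acetonitrile each containing 0.1% formic acid and dead and dwell volumes of 40 μL and 900 μL. Retention time was read from adduct peaks picked by computer and checked manually.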
row,Compound,RP-LC retention time [s]
1,Cc1ccc(-c2nc3ccccn3c2NC(=O)NCc2ccc(F)cc2)cc1,681
2,O=C(NC1CC1)c1ccc(-c2ccc(N3CCCCC3)nc2)cc1,613
3,O=C(Nc1ccc2c(c1)CCC2)C1CCc2nc(N3CCCCC3)ncc2C1 (centres undefined),905
4,O=C(NCC1CC1)c1cn(C2CN(C(=O)Nc3ccc4c(c3)OCCO4)C2)nn1,685
5,CCOC(=O)c1ccc(NC(=O)CC2Sc3ncnn3C2=O)cc1 (centres undefined),642
6,O=C(Nc1ccc(Oc2ccccc2)cc1)c1cccc([N+](=O)[O-])c1C(=O)O,788
7,CCNC(=O)N1CCC2(CC1)c1nccn1-c1ccccc1CN2CC(C)C,623
8,CC(C)OC(=O)C(C(=O)OC(C)C)=C1SC=CS1,1110
9,O=C(C1CCC1)N1[C@H]2CC[C@@H]1c1cnc(-c3ccc(F)cc3)nc1C2,955
10,O=C(NCCc1ccccc1)C1CC(=O)N(CCc2c[nH]c3ccc(Cl)cc23)C1 (centres undefined),809
11,O=C(CCC1CCCC1)NCCC1CCN(C(=O)Nc2ccc(F)cc2F)CC1,880
12,CNC(=O)C1CCCN(c2nc3ncn(CC(=O)Nc4c(C)cc(C)cc4C)c(=O)c3s2)C1 (centres undefined),661
13,O=C(NCc1cccc(F)c1)c1cn2cc(Cl)ccc2n1,799
14,Cc1ccccc1-c1noc(Cn2cnc3c(oc4ccccc43)c2=O)n1,986
15,Cn1nccc1-c1cccc(-c2noc(-c3ccc(Cl)cc3)n2)c1,1250
16,O=S(=O)(c1ccccc1)c1[nH]c(-c2ccccc2)nc1SCc1ccncc1,651
17,N#Cc1ccc(C(=O)N2CCN(c3nc(CN4CCCCC4)cs3)CC2)cc1,614
18,CCOc1cc(=O)n2c(c1C(=O)Nc1cc(C)cc(C)c1)CCCC2,791
19,OCCNCCNCc1ccc(-c2cccc(Cl)c2)o1,568
20,CC1(C)C(=O)NCCN1C(=O)c1cccc(C(F)(F)F)c1,662
21,COc1ccc2c(c1)C1(CCN(C(=O)Nc3ccccc3C)C1)C(=O)N2 (centres undefined),707
22,CC[C@@H](C)[C@@H](O)[C@H](C)C(=O)[C@H](C)/C=C(\C)C[C@H](C)[C@@H]1OC(=O)[C@H]1CC,1250
23,COc1ccc2c(NCCCCCCNc3c4ccccc4nc4cc(OC)ccc34)c3ccccc3nc2c1,655
24,Cc1ccc(CNC(=O)Cn2c(N)nc(C)cc2=O)cc1,595
25,Cc1nn(-c2ccccc2)c(C)c1CCC(=O)NCCN(C)C,590
26,CC(C)CCNC(=O)c1ccc(Oc2nccnc2N2CCC(C)CC2)cc1,1170
27,CC(C)CNS(=O)(=O)c1cc(-c2nc(CC(C)C)cs2)cs1,1170

row,Compound,RP-LC retention time [s]
1,CCN(CC)C(=O)CSc1c(C(C)C)cnc2c1c(=O)n(C)c(=O)n2C,898
2,COCCn1ccc2nc(C)c(C(=O)Nc3ccc4c(c3)OCO4)cc2c1=O,666
3,Cc1cc(N2CCN(C(=O)c3ccccc3)CC2)nc(N2CCOCC2)n1,612
4,CN1CCCN(C(=O)c2ccc(-c3ccsc3)nc2)CC1,586
5,COc1cccc(Cc2nc(-c3ccc4c(c3)nc(C)c(=O)n4C)no2)c1,899
6,COc1ccccc1-c1nc(Cn2nnc(-c3nc(-c4ccc(F)cc4)no3)c2C)c(C)o1,1160
7,CN(C)CCCN(C(=O)c1ccc(Br)s1)c1nc2c(F)cccc2s1,617
8,O=C(Nc1ccc2c(c1)OCCO2)c1cc2n(n1)CCCN(Cc1ccc(F)cc1)C2=O,863
9,Fc1ccccc1-c1nnc(SCc2cccc(C(F)(F)F)c2)o1,1070
10,O=c1ccc(-c2ccccc2)nn1Cc1nc(-c2cccc(Br)c2)no1,1090
11,O=C(CN1C(=O)C2CCCCN2c2ccc(S(=O)(=O)N3CCCC3)cc21)NCC1CCCO1 (centres undefined),771
12,CCOC(=O)C1=C(C)NC2=C(C(=O)C(C(=O)OC)C(C)C2)C1c1cccc(F)c1 (centres undefined),908
13,CS(=O)(=O)N1CCC(c2nnc(-c3ccco3)s2)CC1,655
14,Cc1nn(-c2ccccc2)c2c1N(CCCC(=O)NCCC(C)C)C(=O)CS2,657
15,Cc1cccc(NC(=O)Cn2nnc(-c3ccccc3)n2)c1C,588
16,CCn1ccc(C(=O)Nc2ccccc2)n1,801
17,COc1cccc(-c2cc3c(=O)n(Cc4nc(-c5ccccc5)no4)ccn3n2)c1,1000
18,Cc1cc2nn(CC(=O)NCc3ccccc3)c(=O)n2c(Nc2ccc(C)c(F)c2)n1,1060
19,CCc1nnc(-c2cn(CC(=O)Nc3ccc4c(c3)OCCO4)c3ccccc23)o1,817
20,Cc1nn(CC(=O)N2CCC3(CC2)OCCO3)c(=O)c2nc(-c3ccccc3)sc12,970
21,COC1CN(c2ccc(C)cc2)C12CCNCC2 (centres undefined),622
22,O=C(c1ccc2nsnc2c1)N(Cc1ccsc1)C1CC1,861
23,CCOc1ccc(C(C)NC(=O)c2cn3ccc(C)cc3n2)cc1 (centres undefined),697
24,O=C(c1cccnc1)c1cc(-c2ccccn2)c(=O)n2ccccc12,630
25,Cc1cccc(NC(=O)CSc2nc(=O)n(CCN(C)C)c3c2CCC3)c1,570
26,CCc1nn(CC(=O)N2CCN(c3ncccn3)CC2)c(=O)c2cc3sccc3n12,730

# More lines, now with the values ahead:
row,RP-LC retention time [s],Compound
1,746,CCN1CCCC1CNS(=O)(=O)c1ccccc1-c1nc(-c2ccc(C)cc2)no1 (centres undefined)
2,779,CC(C)NC(=O)c1nnc(-c2ccc(S(=O)(=O)N3CCCC3)cc2)o1
3,1030,Cc1nn(-c2nc(-c3ccc(Cl)cc3)cs2)c(C)c1CC(=O)N1CCOCC1
4,773,COc1ccc(NC(=O)N2CCC3(CC2)N=C(c2ccc(F)cc2)C(=O)N3)c(OC)c1
5,1030,Cc1nn(-c2nc3ccccc3[nH]2)c2c1C(=O)CC(/C=C/c1ccccc1)C2 (centres undefined)
6,883,CCn1nc(C)cc1C(=O)N(Cc1ccccn1)c1nc2c(OC)ccc(OC)c2s1
7,820,O=C(Nc1ccccc1)N1CCCC(c2nnnn2-c2ccccc2)C1 (centres undefined)
8,973,CCN1C(=O)CCc2cc(NS(=O)(=O)c3cc(F)ccc3F)ccc21
9,761,O=C(c1ccc[nH]1)N1CCC2(CC1)NC(=O)N(Cc1ccc(Cl)cc1)C2=O
10,1100,O=C(c1c(F)cccc1F)N1CCc2nc(-c3ccc(Cl)cc3)ncc2C1
11,590,Cc1nnc2n1CCC(NS(=O)(=O)c1ccccc1F)CC2 (centres undefined)
12,748,O=C1NC2(CCN(C(=O)c3ccccc3)CC2)N=C1c1cccc(F)c1
13,1020,COc1ccc(Cc2c(C)nn(-c3nc(C)c(C(=O)N4CCOCC4)s3)c2C)cc1
14,689,COc1ccc(CCNC(=O)CSc2nc3sc(C)cc3c(=O)n2C)cc1OC
15,812,COc1ccccc1-c1noc(C2CCCN2C(=O)Nc2ccc3c(c2)OCO3)n1 (centres undefined)
16,886,CCC(=O)N1CCc2sc(S(=O)(=O)N3CCN(c4ccc(OC)cc4)CC3)cc2C1
17,919,CS(=O)(=O)N1CCC(C(=O)NCCc2ccccc2)Oc2ccc(Cl)cc21 (centres undefined)
18,821,O=C(c1ccco1)N1CCc2nc(OCC3CC3)ccc2C1

row,RP-LC retention time [s],Compound
1,881,CC(C)NC(=O)c1ccc(OCC2CCCN(C(=O)c3ccc(Cl)cc3)C2)cc1 (centres undefined)
2,964,Cn1nc(-c2nc(-c3cccc(F)c3)no2)c2c1CCN(C(=O)NC(C)(C)C)C2
3,793,COc1ccc(S(=O)(=O)CCC(=O)Nc2sc3c(c2C(N)=O)CCC(C)C3)cc1 (centres undefined)
4,657,COc1ccc(-c2cnn3c(C)cc(C)nc23)cc1S(=O)(=O)NCCN1CCCC(C)C1 (centres undefined)
5,821,COc1cccc(-n2ccn3cc(-c4ccc(F)cc4)nc3c2=O)c1
6,749,COc1ccc(CNC(=O)c2cn3cc(Cl)ccc3n2)cc1OC
7,829,COc1ccc(OC)c(S(=O)(=O)N2C[C@@H](F)C[C@H]2C(=O)N2CCc3ccccc3C2)c1
8,1070,COc1cc(OC)cc(-c2nnc(-c3ccccc3Cl)o2)c1
9,905,COCc1cc2nn(CC(=O)Nc3cccc(C)c3)c(=O)n2c(-c2ccccc2)n1
10,765,Cn1c(=O)c(N2CCN(S(=O)(=O)c3ccc4c(c3)CCCC4)CC2)nc2ccncc21
11,801,O=c1ccc(N2CCC(NS(=O)(=O)c3cccs3)C2)nn1CCOc1ccccc1 (centres undefined)
12,605,CC(C)CN1CCn2cc(C(=O)N3CCN(c4ccccc4)CC3)nc2C1
13,857,O=C(Nc1cccc(Br)c1)C1CCN(C(=O)C2Sc3ccccc3NC2=O)CC1 (centres undefined)
14,638,O=C1CC(NC(=O)C2c3ccccc3Oc3ccccc32)CN1 (centres undefined)
15,893,COc1ccc(OC)c(NS(=O)(=O)c2ccc(-c3nnc(C4CCC4)o3)o2)c1
16,769,COc1cccc(C(=O)N2CCC(C(=O)NCc3csc(-c4cccs4)n3)CC2)c1
17,706,CCn1cnc(S(=O)(=O)N2CCC(C(=O)Nc3ccc(OC)cc3OC)CC2)c1
18,656,COc1ccc(CNC(=O)C2CCN(c3cc(N4CCSCC4)ncn3)CC2)cc1
